What was measured:
[1] = target: T1, wild-type FLI1 (Homo sapiens, UniProt Q01543); experiment: Biotinylated isoxazole-mediated precipitation; format: biochemical; conditions: U2OS osteosarcoma cell lysates
T1 construct: expressed in transfected cells; host or cells: U2OS osteosarcoma cells, lentiviral expression
T1 sequence (Q01543 1-452): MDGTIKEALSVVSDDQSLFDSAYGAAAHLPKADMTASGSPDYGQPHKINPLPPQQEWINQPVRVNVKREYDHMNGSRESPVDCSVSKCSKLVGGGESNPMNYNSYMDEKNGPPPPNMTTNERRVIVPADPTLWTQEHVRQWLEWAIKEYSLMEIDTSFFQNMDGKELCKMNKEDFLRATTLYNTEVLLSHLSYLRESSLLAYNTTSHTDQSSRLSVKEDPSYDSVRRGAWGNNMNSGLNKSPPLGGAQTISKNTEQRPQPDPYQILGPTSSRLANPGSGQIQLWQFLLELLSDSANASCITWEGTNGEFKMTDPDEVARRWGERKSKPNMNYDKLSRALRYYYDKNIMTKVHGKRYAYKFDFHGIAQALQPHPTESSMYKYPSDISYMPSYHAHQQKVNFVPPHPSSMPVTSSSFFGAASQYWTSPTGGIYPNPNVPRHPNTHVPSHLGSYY
Procedure: (§1) These assays were performed as previously described (Kato et al., 2012) with slight modifications. Biotinylated isoxazole (b-isox, Sigma-Aldrich) was reconstituted in DMSO. Briefly, 5-10 million cells were resuspended in 1 mL lysis buffer (20 mM Tris-HCl pH 7.4, 150 mM NaCl, 5 mM MgCl2, 0.5% NP-40 and 10% glycerol supplemented with 1× Protease/Phosphatase inhibitors (Pierce), 0.1 mM PMSF and 20 mM betamercaptoethanol) and incubated for 30 minutes with rotation at +4° C. Protein supernatant was then collected after centrifugation for 15 min at 14000 rpm+4° C. A 5% whole cell extract (WCE) control was collected and the remaining proteins were divided into four aliquots before addition of biotinylated isoxazole at 0, 10, 30 100 uM final concentrations. 100 μg/mL RNase A (Life Technologies) was used for RNase treatment experiments. The Reaction solutions were incubated at +4° C. for 1 h with rotation and centrifuged for 15 min at 14000 rpm+4° C. Supernatant was saved for further analysis and pellets were washed twice in supplemented Lysis buffer before resuspension in Laemmli buffer. WCE, pellets and supernatants were analyzed by 4%-12% Tris-Glycine gradient gels (Life Technologies) and Western blotting was performed using standard protocols.

[2] = tested on: EWS-FLI1; experiment: Biotinylated isoxazole-mediated precipitation; format: biochemical
Procedure: as §1

[3] = target: mSWI/SNF (BAF) complexes (human); experiment: cell-based or functional assay
[4] = tested on: EWS-FLI1; experiment: BAF155 ChIP-seq after shRNA knockdown of EWS-FLI1; format: cell-based; conditions: SK-N-MC cells, versus shGFP
Target sequence in this assay (as listed by the source): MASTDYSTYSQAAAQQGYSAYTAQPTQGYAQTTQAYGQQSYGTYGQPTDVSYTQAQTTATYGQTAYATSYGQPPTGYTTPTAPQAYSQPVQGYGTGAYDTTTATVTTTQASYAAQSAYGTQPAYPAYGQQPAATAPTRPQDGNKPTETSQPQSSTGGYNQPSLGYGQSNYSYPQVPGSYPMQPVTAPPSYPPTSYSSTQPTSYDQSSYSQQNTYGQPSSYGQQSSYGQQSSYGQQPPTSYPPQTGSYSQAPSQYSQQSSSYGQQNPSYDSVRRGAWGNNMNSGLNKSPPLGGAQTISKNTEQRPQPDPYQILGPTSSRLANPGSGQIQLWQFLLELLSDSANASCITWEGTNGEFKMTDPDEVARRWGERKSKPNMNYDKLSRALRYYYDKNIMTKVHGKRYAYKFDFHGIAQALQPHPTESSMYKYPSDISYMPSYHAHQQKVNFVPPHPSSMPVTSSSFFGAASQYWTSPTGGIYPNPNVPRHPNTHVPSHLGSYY

[5] = target: mSWI/SNF (BAF) complexes (human); experiment: partial urea denaturation of nuclear extracts before anti-EWSR1 immunoprecipitation, immunoblot
[6] = target: T2, EWS(YS37)-FLI1 (human); experiment: co-immunoprecipitation with anti-V5 antibodies, HEK-293-T cells co-expressing HA- and V5-tagged proteins
T2 construct: EWS-FLI1 with all 37 tyrosines of the prion-like domain changed to serine; also called EWS(Y37)-FLI1; EWS(YS37)-FLI1 mutant protein
T2 chain: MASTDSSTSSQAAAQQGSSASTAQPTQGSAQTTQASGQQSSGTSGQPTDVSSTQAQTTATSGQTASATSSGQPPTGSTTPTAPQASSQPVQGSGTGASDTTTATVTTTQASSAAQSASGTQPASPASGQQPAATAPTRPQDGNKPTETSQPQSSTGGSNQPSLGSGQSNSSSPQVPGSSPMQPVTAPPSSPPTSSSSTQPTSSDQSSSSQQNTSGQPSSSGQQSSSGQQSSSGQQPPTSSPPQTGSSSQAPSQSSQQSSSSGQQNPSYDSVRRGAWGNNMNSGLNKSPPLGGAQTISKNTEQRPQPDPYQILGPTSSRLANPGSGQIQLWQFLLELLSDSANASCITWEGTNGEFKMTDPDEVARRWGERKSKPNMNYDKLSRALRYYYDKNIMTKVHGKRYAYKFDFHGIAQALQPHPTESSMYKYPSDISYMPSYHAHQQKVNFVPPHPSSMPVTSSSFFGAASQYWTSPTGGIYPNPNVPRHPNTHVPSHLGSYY

For `O=C1N[C@H]2[C@H](CS[C@H]2CCCCC(=O)OCCCCCCNC(=O)c2cc(-c3cccs3)on2)N1` [b-isox, biotinylated isoxazole], the “precipitation of lentivirally expressed wild-type FLI1” value [1] was “but not wild-type FLI1”, the “precipitation of EWS-FLI1” value ([2]; 100 uM b-isox, Ewing sarcoma cell lysates) was “precipitates” and the “precipitation of EWS-FLI1, dose dependence” value ([2]; Ewing sarcoma cell lysates, b-isox 0, 10, 30, 100 uM) was “dose-dependent”. The “precipitation of lentivirally expressed EWS-FLI1” value ([2]; U2OS osteosarcoma cell lysates) was “precipitates”.

Molecule EWS-FLI1 fusion protein has a BAF155 ChIP-seq peak occupancy at EWS-FLI1-bound GGAA repeats, SK-N-MC cells [3] of 2 fold.

With “shEWS-FLI1: shRNA, target FLI1, position 1917, sequence CGTCATGTTCTGGTTTGAGAT” the “BAF155 occupancy at EWS-FLI1 bound GGAA repeats” value [4] was “decreased specifically at GGAA repeat regions”.

“wild-type EWSR1 (from UniProt Q01844 1-656)” was tested, and the urea concentration at which the interactions were decreased [5] was 0.5 M.

B1: HA-tagged EWS(YS37)-FLI1 (other, not shown: small tags and cut ends)
chain: T2 chain
notes: also called HA-tagged mutant EWS-FLI1
B1: binds [6].
